For 13 molecules, IC50 and EC50 results are on record in patent publication US20190185461A1, “B[…] B2-RECEPTOR AGONIST ACTIVITY AND M3-RECEPTOR ANTAGONIST ACTIVITY AND MEDICAL USE THEREOF” (Sichuan Haisco Pharmaceutical Co., Ltd., priority 2015, published 2019).

In experiment [1] the target is T1, human muscarine receptor M3 (hM3) (Homo sapiens, UniProt P20309).
T1 construct: host or cells: CHO cells
The experiment can be described thus: Inhibitory activity against human muscarine receptor M3 (aequorin luminescence, CHO cells, acetylcholine challenge). In kind it is cell-based. The conditions noted are these: IC50 for hM3 receptor, CHO cells stably expressing hM3 and apo-Aequorin; acetylcholine chloride 112.92 nM; luminescence over 20 seconds. As for the experimental part:
CHO cells (PerkinElmer, ES-212-AF) that stably express human muscarine receptor M3 (hM3) and apo-Aequorin were cultured at 37° C., 5% CO2 in Ham's F12 media (Invitrogen 12500-062) containing 10% fetal bovine serum (FBS) (Gibico 10099-141), 400 μg/mL G418 (sigma G5013) and 250 μg/mL Zeocin (Invivogen ant-zn-5p), until a confluency of 90% to 100% was reached. Cells were separated by rinsing with PBS/5 mM EDTA, collected by centrifugation, re-suspended in phenol red-free Ham's F12 media (Invitrogen 12500-062) containing 0.1 BSA (BOVOGEN BSAS 100), and counted. The cell concentration was adjusted to 1×10^6 cells/ml. 15 ml of the cell suspension was added to a 50-ml centrifuge tube, to which Coelenterazine-h (Promega 52011) was added to a final concentration of 5 μM. The tube was wrapped with a tin foil to shade light, and incubated on a rotary shaker at 20° C. for 4 hours. The cells were diluted with a phenol red-free/0.1% BSA Ham's F12 medium to a final concentration of 5.0×10^5 cells/ml, placed on a rotary shaker in low speed rotation, and incubated at room temperature for at least 1 hour. The compounds of the Examples were formulated with DMSO into 10 mM stock solutions, diluted in series with a phenol red-free/0.1% BSA Ham's F12 media (log(M): −7, −8, −9, −10, −11), and added to a 96-well plate at 50 μl/well. 50 μl cell suspension was further added to each well (25,000 cells/well) and incubated for 15 min at room temperature. The 96-well plate was placed in a microplate reader (Perkin Elmer, Envision), and a 50 μl solution of acetylcholine chloride (Sigma A6625) was added to each well at a concentration of 112.92 nM (hM3) with a microplate reader sample injector. The luminescence was recorded over 20 seconds, and IC50 values were calculated and analyzed by Origin 7.5.

For experiment [2], the target named is T2, human β2-adrenergic receptor (hβ2) (Homo sapiens, UniProt P07550).
T2 construct: host or cells: CHO cells
Briefly: Agonist activity on human β2-adrenergic receptor (LANCE Ultra cAMP Assay, CHO cells). It is filed as cell-based. As for the experimental part:
The agonist activity of the compounds of the Examples on the human adrenergic receptor was measured by the LANCE Ultra cAMP Assay.
CHO cells (PerkinElmer, ES-034-AF) that stably express human adrenergic receptor (hβ2) were cultured at 37° C., 5% CO2 in MEM-alpha media (Invitrogen 12561-056) containing 10% fetal bovine serum (FBS) (Gibico 10099-141) and 250 μg/ml Zeocin (InvivoGen ant-zn-5p), until a confluency of 90% to 100% was reached. Then the agonism on cAMP was tested by using a LANCE Ultra cAMP Assay kit (PerkinElmer TRF0263). Cells were separated with PBS/5 mM EDTA, collected by centrifugation, re-suspended in Stimulation Buffer (1×HBSS, 5 mM HEPES, 0.5 mM IBMX, 0.1% BSA, pH7.4), and adjusted to a cell concentration of 6×10^5 cells/ml. The compounds of the Examples were formulated with DMSO into 10 mM stock solutions, diluted in series with Stimulation Buffer, and added to a 384-well plate at 5 μl/well. 5 μl cell suspension was further added to each well (3,000 cells/well), incubated for 30 min at room temperature, then 5 μl of a 4×Eu-cAMP trace working solution was added to each well, and then 5 μl of a 4× Ulight-anti-cAMP working solution was added to each well, followed by incubation at room temperature for 1 hour. The 384-well plate was detected for TR-FRET with a microplate reader (Perkin Elmer, Envision), and EC50 values were calculated and analyzed by Origin 7.5.

T1 sequence (P20309 whole entry): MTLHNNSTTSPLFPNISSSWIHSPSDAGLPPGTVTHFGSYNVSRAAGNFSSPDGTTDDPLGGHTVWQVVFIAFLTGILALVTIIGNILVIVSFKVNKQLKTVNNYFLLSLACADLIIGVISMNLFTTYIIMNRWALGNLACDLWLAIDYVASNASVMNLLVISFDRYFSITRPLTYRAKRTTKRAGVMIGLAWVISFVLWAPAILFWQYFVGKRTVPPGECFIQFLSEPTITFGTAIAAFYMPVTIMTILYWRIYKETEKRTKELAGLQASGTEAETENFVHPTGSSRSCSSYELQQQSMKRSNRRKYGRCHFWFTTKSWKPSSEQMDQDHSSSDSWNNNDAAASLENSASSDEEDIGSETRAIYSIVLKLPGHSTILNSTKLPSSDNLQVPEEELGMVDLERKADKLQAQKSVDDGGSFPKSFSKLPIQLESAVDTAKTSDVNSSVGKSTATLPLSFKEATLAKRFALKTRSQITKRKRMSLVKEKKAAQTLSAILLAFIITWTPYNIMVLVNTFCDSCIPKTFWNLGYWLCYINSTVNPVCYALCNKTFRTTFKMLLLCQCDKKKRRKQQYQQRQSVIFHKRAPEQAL
T2 sequence (P07550 whole entry): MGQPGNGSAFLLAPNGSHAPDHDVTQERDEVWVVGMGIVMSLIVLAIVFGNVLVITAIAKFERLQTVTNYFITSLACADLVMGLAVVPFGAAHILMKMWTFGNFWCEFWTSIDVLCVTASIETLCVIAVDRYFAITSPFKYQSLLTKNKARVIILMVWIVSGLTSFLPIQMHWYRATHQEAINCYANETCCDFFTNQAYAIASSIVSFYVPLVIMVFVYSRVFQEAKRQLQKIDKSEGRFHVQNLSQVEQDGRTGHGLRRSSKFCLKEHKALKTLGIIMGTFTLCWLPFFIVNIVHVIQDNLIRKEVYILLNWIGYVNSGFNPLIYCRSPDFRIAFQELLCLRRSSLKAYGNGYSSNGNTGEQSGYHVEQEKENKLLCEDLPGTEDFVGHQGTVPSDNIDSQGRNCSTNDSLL

As for `O=C(OC1CC2(CCN(CCCn3c(=O)oc4cc(CNC[C@H](O)c5ccc(O)c6[nH]c(=O)ccc56)ccc43)CC2)C1)C(O)(c1cccs1)c1cccs1` [Compound 8, [7-[3-[6-[[[(2R)-2-hydroxy-2-(8-hydroxy-2-oxo-1H-quinolin-5-yl)ethyl]amino]methyl]-2-oxo-1,3-benzoxazol-3-yl]propyl]-7-azaspiro[3.5]nonan-2-yl] 2-hydroxy-2,2-bis(2-thienyl)acetate; ditrifluoroacetic acid], in experiment [1], the midpoint of inhibition, the IC50, lay at 0.65 nM. Also, in experiment [2], the midpoint of the response, the EC50, lay at 6.13 nM.

`O=C(OC1CC2(CCN(CCCn3nnc4cc(CNC[C@H](O)c5ccc(O)c6[nH]c(=O)ccc56)ccc43)CC2)C1)C(O)(c1cccs1)C1CCCC1` (single isomer, unassigned) [Isomer 1 of Compound 9, ditrifluoroacetic acid]: in experiment [1], inhibition was half-maximal at 2.47 nM (IC50).

As for `O=C(OC1CC2(CCN(CCCn3nnc4cc(CNC[C@H](O)c5ccc(O)c(CO)c5)ccc43)CC2)C1)C(O)(c1cccs1)c1cccs1` [Compound 13, [7-[3-[5-[[[(2R)-2-hydroxy-2-[4-hydroxy-3-(hydroxymethyl)phenyl]ethyl]amino]methyl]benzotriazol-1-yl]propyl]-7-azaspiro[3.5]nonan-2-yl] 2-hydroxy-2,2-bis(2-thienyl)acetate; ditrifluoroacetic acid], the IC50 (in general, the concentration needed to halve the response being measured) in experiment [1] came to 0.31 nM.

In experiment [1], `CN(CCCn1nnc2cc(CNC[C@H](O)c3ccc(O)c4[nH]c(=O)ccc34)ccc21)C(=O)CCN1CCC2(CC1)CC(OC(=O)C(O)(c1cccs1)c1cccs1)C2` [Compound 11, [7-[3-[3-[5-[[[(2R)-2-hydroxy-2-(8-hydroxy-2-oxo-1H-quinolin-5-yl)ethyl]amino]methyl]benzotriazol-1-yl]propyl-methyl-amino]-3-oxo-propyl]-7-azaspiro[3.5]nonan-2-yl] 2-hydroxy-2,2-bis(2-thienyl)acetate; ditrifluoroacetic acid] came in with an IC50 of 0.46 nM. The IC50 values of the last two molecules are within 1.5-fold of each other.

As for `O=CNc1cc([C@@H](O)CNCc2ccc3c(c2)nnn3CCCN2CCC3(CC2)CC(OC(=O)C(O)(c2cccs2)c2cccs2)C3)ccc1O` [Compound 3, [7-[3-[5-[[[(2R)-2-(3-formamido-4-hydroxy-phenyl)-2-hydroxy-ethyl]amino]methyl]benzotriazol-1-yl]propyl]-7-azaspiro[3.5]nonan-2-yl] 2-hydroxy-2,2-bis(2-thienyl)acetate; ditrifluoroacetic acid], in experiment [1], 0.22 nM corresponded to half-maximal inhibition (IC50).

Turning to `O=C(OC1CC2(CCN(CCCn3nnc4cc(CNC[C@H](O)c5ccc(O)c6[nH]c(=O)ccc56)ccc43)CC2)C1)C(O)(c1ccccc1)C1CCCC1` (single isomer, unassigned) [Isomer 2 of Compound 4], in experiment [1], inhibition was half-maximal at 1.77 nM (IC50).

In experiment [1], `O=C(OC1CC2(CCN(CCCn3nnc4cc(CNC[C@H](O)c5ccc(O)c6[nH]c(=O)ccc56)ccc43)CC2)C1)C(O)(c1cccs1)c1cccs1` [Compound 1, [7-[3-[5-[[[(2R)-2-hydroxy-2-(8-hydroxy-2-oxo-1H-quinolin-5-yl)ethyl]amino]methyl]benzotriazol-1-yl]propyl]-7-azaspiro[3.5]nonan-2-yl] 2-hydroxy-2,2-bis(2-thienyl)acetate] returned an IC50 of 0.43 nM. In addition, it took 4.45 nM to reach a half-maximal effect in experiment [2] (EC50).

As to `O=C(OC1CC2(CCN(CCCn3nnc4cc(CNC[C@H](O)c5ccc(O)c6[nH]c(=O)ccc56)ccc43)CC2)C1)C(O)(c1ccccc1)C1CCCC1` (stereo partly drawn) [Compound 4, [7-[3-[5-[[[(2R)-2-hydroxy-2-(8-hydroxy-2-oxo-1H-quinolin-5-yl)ethyl]amino]methyl]benzotriazol-1-yl]propyl]-7-azaspiro[3.5]nonan-2-yl] 2-cyclopentyl-2-hydroxy-2-phenyl-acetate; ditrifluoroacetic acid], 2.46 nM corresponded to half-maximal inhibition in experiment [1] (IC50). This counts as single-digit nanomolar.

In experiment [1], `O=C(OC1CC2(CCN(CCCn3nnc4cc(CNC[C@H](O)c5ccc(O)c6[nH]c(=O)ccc56)ccc43)CC2)C1)C(O)(c1ccccc1)C1CCCC1` (single isomer, unassigned) [Isomer 1 of Compound 4] displayed an IC50 of 2.36 nM.

In turn, `O=C(OC1CC2(CCN(CCCn3nnc4cc(CNC[C@H](O)c5ccc(O)c6[nH]c(=O)sc56)ccc43)CC2)C1)C(O)(c1cccs1)c1cccs1` [Compound 12, [7-[3-[5-[[[(2R)-2-hydroxy-2-(4-hydroxy-2-oxo-3H-1,3-benzothiazol-7-yl)ethyl]amino]methyl]benzotriazol-1-yl]propyl]-7-azaspiro[3.5]nonan-2-yl] 2-hydroxy-2,2-bis(2-thienyl)acetate; ditrifluoroacetic acid] returned an IC50 in experiment [1] of 0.52 nM. Further, the EC50 (as a rule, the concentration at which the effect is half-maximal) in experiment [2] was found to be 0.47 nM.

In the case of `O=C(OC1CC2(CCN(CCCn3nnc4cc(CNC[C@H](O)c5ccc(O)c6[nH]c(=O)ccc56)ccc43)CC2)C1)C(O)(c1cccs1)C1CCCC1` (single isomer, unassigned) [Isomer 2 of Compound 9, ditrifluoroacetic acid], the IC50 in experiment [1] is 2.76 nM.

In turn, `O=C(OC1CC2(CCN(CCCn3c(=O)sc4cc(CNC[C@H](O)c5ccc(O)c6[nH]c(=O)ccc56)ccc43)CC2)C1)C(O)(c1cccs1)c1cccs1` [Compound 7, [7-[3-[6-[[[(2R)-2-hydroxy-2-(8-hydroxy-2-oxo-1H-quinolin-5-yl)ethyl]amino]methyl]-2-oxo-1,3-benzothiazol-3-yl]propyl]-7-azaspiro[3.5]nonan-2-yl] 2-hydroxy-2,2-bis(2-thienyl)acetate; ditrifluoroacetic acid] came in with an IC50 in experiment [1] of 1.29 nM. This molecule also showed an EC50 in experiment [2] of 4 nM.

In experiment [1], `O=C1COc2c([C@@H](O)CNCc3ccc4c(c3)nnn4CCCN3CCC4(CC3)CC(OC(=O)C(O)(c3cccs3)c3cccs3)C4)ccc(O)c2N1` [Compound 2, [7-[3-[5-[[[(2R)-2-hydroxy-2-(5-hydroxy-3-oxo-4H-1,4-benzoxazin-8-yl)ethyl]amino]methyl]benzotriazol-1-yl]propyl]-7-azaspiro[3.5]nonan-2-yl] 2-hydroxy-2,2-bis(2-thienyl)acetate; ditrifluoroacetic acid] came in with an IC50 of 0.59 nM. In addition, the EC50 in experiment [2] was 1.3 nM.
